Data as given in US20260158025A1, “COMPOUNDS AND COMBINATIONS THEREOF FOR TREATING NEUROLOGICAL AND PSYCHIATRIC CONDITIONS” (priority 2024, published 2026).
“Also recorded” adds a separate entry of the source. Counter-ions that a name gives are not always drawn.

How the values were obtained:
[1] = Pharmacokinetics of the subject combination in moderate renal impairment
Description: (§1) Data are GMRs and 90% CIs. References used are the matched healthy subjects for renal and hepatic impairment studies, and extensive or ultra-extensive CYP2D6 metabolizers respectively.

[2] = Effect of food on pharmacokinetics of the subject combination; type: in vivo, human; conditions: subject combination administered with food
[3] = Co-administration of the subject combination with paroxetine / strong CYP2D6 inhibitor; conditions: subject combination plus strong CYP2D6 inhibitor
Description: In some embodiments, the patients are monitored for adverse reactions potentially attributable to dextromethorphan, such as somnolence and dizziness.

[4] = Pharmacokinetics of the subject combination in CYP2D6 poor metabolizers; conditions: steady state, hydrobromide monohydrate
Description: Approximately 7% to 10% of Caucasians and 3% to 8% of African Americans lack the capacity to metabolize CYP2D6 substrates and are classified as poor metabolizers.
as §1

[5] = Steady state pharmacokinetics after administration of the subject combination; conditions: for Cmax relative to the peak level of bupropion: after administration of the subject combination
[6] = clinical trials; cited from earlier work
[7] = clinical trials; cited from earlier work; remark: listed apart in the source

CC(NC(C)(C)C)C(=O)c1cccc(Cl)c1.Cl (racemic) [bupropion, (±)-1-(3-chlorophenyl)-2-[(1,1-dimethylethyl)amino]-1-propanone hydrochloride]
increase in exposure vs matched controls with normal renal function ([1]; human, in vivo): approximately 2 fold
reduction in clearance vs matched controls with normal renal function ([1]; human, in vivo): 50%

COc1ccc2c(c1)[C@]13CCCC[C@@H]1[C@H](C2)N(C)CC3 [dextromethorphan, morphinan, 3-methoxy-17-methyl-, (9α, 13α, 14α), hydrobromide monohydrate]
change of Cmax with food [2]: unchanged
plasma concentrations on concomitant use with a strong CYP2D6 inhibitor [3]: increases plasma concentrations
reduction in clearance vs matched controls with normal renal function ([1]; moderate renal impairment (GFR 30-60 mL/min)): 50%
increase in exposure vs matched controls with normal renal function ([1]; moderate renal impairment (GFR 30-60 mL/min), 7 subjects vs 6 controls): approximately 2 fold
plasma concentrations in poor metabolizers compared with non-poor metabolizers [4]: increases plasma concentrations; also recorded: generally higher
increase in mean elimination half-life compared to dextromethorphan given without bupropion ([5]; 8 days of the subject combination, extensive metabolizers): approximately 3 fold
pharmacokinetics at steady state (dose proportionality) ([5]; co-administered with bupropion, dextromethorphan 30 to 60 mg, bupropion 75 to 150 mg): nonlinear pharmacokinetics

CC(NC(C)(C)C)C(O)c1cccc(Cl)c1 (stereo not drawn) [erythrohydroxybupropion]
Cmax relative to the peak level of bupropion [5]: approximately equal to

CN[C@]1(c2ccccc2Cl)CCCCC1=O [esketamine, Esketamine]
patients who developed sedation based on MOAA/S [6]: 48% to 61
patients who experienced loss of consciousness (MOAA/S score of 0) [6]: 0.3% to 0.4
patients who developed dissociative or perceptual changes based on CADSS [7]: 61% to 84

C[C@H]1NC(C)(C)CO[C@]1(O)c1cccc(Cl)c1 [hydroxybupropion]
Cmax relative to the peak level of bupropion [5]: approximately 14 times

C[C@H](NC(C)(C)C)[C@@H](O)c1cccc(Cl)c1 [threohydroxybupropion]
Cmax relative to the peak level of bupropion [5]: about 5 times
